This is an account of results in patent US9206156B2, “Substituted indole derivatives” (GRÜNENTHAL GMBH, priority 2008, dated 2015).

Test [1] has as its target T1, ORL1 receptor (Homo sapiens, UniProt P41146).
T1 construct: expressed in transfected cells; host or cells: CHO (recombinant CHO-ORL1 cells), membranes
The experiment in a line: ORL1 receptor binding assay with 3H-nociceptin/orphanin FQ (WGA-SPA beads). The settings on record: c=1 μM test substance; 0.5 nM 3H-nociceptin/orphanin FQ; membranes of recombinant CHO-ORL1 cells. In outline:
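Affinity given as nanomolar Ki or as % inhibition at c=1 μM. Membranes of CHO cells expressing recombinant ORL1 (20 μg protein) were incubated one hour at room temperature with 0.5 nM 3H-nociceptin/orphanin FQ in Hepes 50 mM, pH 7.4, plus MgCl2 and EDTA; bound ligand detected by SPA bead scintillation counting.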

Test [2] concerns the target T2, human μ-opiate receptor (Homo sapiens, UniProt P35372).
T2 construct: purchased NEN, Zaventem, Belgium RB-HOM; host or cells: CHO-K1 cells (membrane preparation)
Put plainly: μ-opiate receptor binding assay with [3H] naloxone (WGA-SPA beads). The settings on record: 1 μmol/l test substance; 1 nmol/l [3H] naloxone; CHO-K1 cell membranes expressing human μ-opiate receptor. In short, it runs like this:
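Scintillation proximity readout: [3H]naloxone (1 nmol/l) displacement measured after 90 min, room temperature, on human μ-receptor CHO-K1 membranes in Tris-HCl/azide/BSA buffer; 25 μmol/l naloxone defined non-specific binding. Values are % specific-binding inhibition at 1 μmol/l, or Ki from IC50 (Cheng-Prusoff).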

For orientation: inhibition means the share of the control response that was lost under treatment.

T2 sequence (P35372 whole entry): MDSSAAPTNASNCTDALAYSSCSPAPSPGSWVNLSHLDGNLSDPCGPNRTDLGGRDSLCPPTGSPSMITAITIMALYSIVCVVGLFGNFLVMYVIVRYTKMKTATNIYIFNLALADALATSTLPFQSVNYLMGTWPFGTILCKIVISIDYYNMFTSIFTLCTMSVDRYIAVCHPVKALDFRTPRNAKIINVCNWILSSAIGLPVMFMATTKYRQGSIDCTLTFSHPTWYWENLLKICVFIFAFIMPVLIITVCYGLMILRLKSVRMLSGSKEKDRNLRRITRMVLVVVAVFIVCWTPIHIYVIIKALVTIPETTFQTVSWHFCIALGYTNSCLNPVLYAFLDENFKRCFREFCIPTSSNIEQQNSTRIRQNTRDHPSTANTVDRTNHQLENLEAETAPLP
T1 sequence (P41146 whole entry): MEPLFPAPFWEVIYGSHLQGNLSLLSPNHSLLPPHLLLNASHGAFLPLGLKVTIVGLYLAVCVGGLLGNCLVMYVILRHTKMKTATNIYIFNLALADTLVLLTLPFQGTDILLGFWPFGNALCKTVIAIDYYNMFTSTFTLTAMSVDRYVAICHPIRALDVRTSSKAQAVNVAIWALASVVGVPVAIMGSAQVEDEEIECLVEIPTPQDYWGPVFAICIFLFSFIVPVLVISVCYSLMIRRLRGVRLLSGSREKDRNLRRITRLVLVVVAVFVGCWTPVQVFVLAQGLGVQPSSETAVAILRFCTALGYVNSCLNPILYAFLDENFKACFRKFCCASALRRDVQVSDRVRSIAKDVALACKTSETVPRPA

With `CN(CCN1CCC(c2ccccc2)(N2CCCC2)CC1)Cc1ccc2cc[nH]c2c1` [Example 143, N-((1H-indol-6-yl)methyl)-N-methyl-2-(4-phenyl-4-(pyrrolidin-1-yl)piperidin-1-yl)ethanamine], the inhibition at 1 µM was 13% in test [1] and 71% in test [2].

With `CN(CCCN1CCC(c2ccccc2)(N(C)C)CC1)C(=O)c1ccc2cc[nH]c2c1` [Example 56, N-(3-(4-(Dimethylamino)-4-phenylpiperidin-1-yl)propyl)-N-methyl-1H-indole-6-carboxamide], the inhibition at 1 µM in test [1] was 35%; in test [2], 71%.

With `CN(C)C1(c2cccs2)CCN(C(=O)CC(NC(=O)c2ccc3cc[nH]c3c2)c2ccccc2)CC1` (centres unmarked) [Example 96, N-(3-(4-(dimethylamino)-4-(thiophen-2-yl)piperidin-1-yl)-3-oxo-1-phenylpropyl)-1H-indole-6-carboxamide], the inhibition at 1 µM in test [1] worked out at 79%; in test [2], 96%.

As to `CC(C)c1ccc2c(CNCCN3CCC(c4cccs4)(N(C)C)CC3)c[nH]c2c1` [Example 74, 1-(2-((6-Isopropyl-1H-indol-3-yl)methylamino)ethyl)-N,N-dimethyl-4-(thiophen-2-yl)pipendin-4-amine], the inhibition at 1 µM in test [1] is 97%; in test [2] it was 99%.

Turning to `CN(C)C1(c2ccccc2)CCN(C(=O)C2CCCN(Cc3c[nH]c4ccc(Br)cc34)C2)CC1` (centres unmarked) [Example 155, (1-((5-bromo-1H-indol-3-yl)methyl)piperidin-3-yl)(4-(dimethylamino)-4-phenylpiperidin-1-yl) methanone], the inhibition at 1 µM in test [1] amounted to 69%; in test [2] it was 89%.

With `CN(CCN1CCC(c2ccccc2)(N(C)C)CC1)Cc1ccc2cc[nH]c2c1` [Example 181, 1-(2-(((1H-indol-6-yl)methyl)(methyl)amino)ethyl)-N,N-dimethyl-4-phenylpiperidin-4-amine], the results for the inhibition at 1 µM in test [1] and in test [2] were 96% and 34%, respectively.

For the compound `COc1ccc2c(c1)c(CNCCN1CCC(c3cccs3)(N(C)C)CC1)c(C)n2Cc1ccccc1` [Example 78, 1-(2-((1-Benzyl-5-methoxy-2-methyl-1H-indol-3-yl)methylamino)ethyl)-N,N-dimethyl-4-(thiophen-2-yl)piperidin-4-amine], the inhibition at 1 µM in test [1] was 62%; in test [2], 93%.

With `CN(C(=O)c1ccc2ccn(C)c2c1)C(C(=O)N1CCC(c2cccs2)(N(C)C)CC1)c1ccccc1` (centres unmarked) [Example 111, N-(2-(4-(dimethylamino)-4-(thiophen-2-yl)piperidin-1-yl)-2-oxo-1-phenylethyl)-N,1-dimethyl-1H-indole-6-carboxamide], the inhibition at 1 µM in test [1] stood at 60%; in test [2], 82%.

On to `CN(C(=O)c1ccc2cc[nH]c2c1)C(C(=O)N1CCC(c2cccs2)(N(C)C)CC1)c1ccccc1` (centres unmarked) [Example 102, N-(2-(4-(dimethylamino)-4-(thiophen-2-yl)piperidin-1-yl)-2-oxo-1-phenylethyl)-N-methyl-1H-indole-6-carboxamide], for which the inhibition at 1 µM in test [1] is 65%; in test [2] it was 66%.

As to `CN(CCN1CCC(c2ccccc2)(N(C)C)CC1)C(=O)c1ccc2ccn(C)c2c1` [Example 119, N-(2-(4-(dimethylamino)-4-phenylpiperidin-1-yl)ethyl)-N,1-dimethyl-1H-indole-6-carboxamide], the inhibition at 1 µM worked out at 45% in test [1] and 95% in test [2].

As to `CN(C)C1(c2ccccc2)CCN(C(=O)C2CCCN(C(=O)c3c[nH]c4ccccc34)C2)CC1` (centres unmarked) [Example 131, (1-(1H-indole-3-carbonyl)piperidin-3-yl)(4-(dimethylamino)-4-phenylpiperidin-1-yl)methanone], the inhibition at 1 µM in test [1] was found to be 34%; in test [2], 43%.

With `CN(CCN1CCC(c2ccccc2)(N(C)C)CC1)C(=O)c1cccc2c1ccn2C` [Example 31, N-(2-(4-(Dimethylamino)-4-phenylpiperidin-1-yl)ethyl)-N,1-dimethyl-1H-indole-4-carboxamide], the inhibition at 1 µM in test [1] is 35%; in test [2], 88%.

With `CCCCC1(N(C)C)CCN(CCN(C)C(=O)CC(c2c[nH]c3ccccc23)C(C)C)CC1` (centres unmarked) [Example 33, N-(2-(4-Butyl-4-(dimethylamino)piperidin-1-yl)ethyl)-3-(1H-indol-3-yl)-N,4-dimethylpentanamide], the inhibition at 1 µM in test [1] amounted to 27%; in test [2], 94%.

In the case of `CC(CC(=O)N1CCCC(C(=O)N2CCC(c3ccccc3)(N(C)C)CC2)C1)c1c[nH]c2ccccc12` (centres unmarked) [Example 122, 1-(3-(4-(dimethylamino)-4-phenylpiperidine-1-carbonyl)piperidin-1-yl)-3-(1H-indol-3-yl)butan-1-one], the inhibition at 1 µM was determined as 43% in test [1] and 84% in test [2].

Take `CCCCC1(N(C)C)CCN(CCN(C)C(=O)c2cc3cc(F)ccc3[nH]2)CC1` [Example 52, N-(2-(4-Butyl-4-(dimethylamino)piperidin-1-yl)ethyl)-5-fluoro-N-methyl-1H-indole-2-carboxamide]: the inhibition at 1 µM was 28% in test [1] and 65% in test [2].

As for `CN(C)C1(c2ccccc2)CCN(C(=O)C2CCCN(C(=O)C3CCCc4c3[nH]c3ccc(Cl)cc43)C2)CC1` (centres unmarked) [Example 103, (6-chloro-2,3,4,9-tetrahydro-1H-carbazol-1-yl)(3-(4-(dimethylamino)-4-phenylpiperidine-1-carbonyl)piperidin-1-yl)methanone], the inhibition at 1 µM was 65% in test [1] and 35% in test [2].
